Earlier results in patent US20130190499A1, “Azaisoquinolinone derivatives as NK3 antagonists” (H. Lundbeck A/S, priority 2010, published 2013).

Molecular target: T1, NK3 (Homo sapiens, UniProt P29371)
T1 sequence (P29371 1-465): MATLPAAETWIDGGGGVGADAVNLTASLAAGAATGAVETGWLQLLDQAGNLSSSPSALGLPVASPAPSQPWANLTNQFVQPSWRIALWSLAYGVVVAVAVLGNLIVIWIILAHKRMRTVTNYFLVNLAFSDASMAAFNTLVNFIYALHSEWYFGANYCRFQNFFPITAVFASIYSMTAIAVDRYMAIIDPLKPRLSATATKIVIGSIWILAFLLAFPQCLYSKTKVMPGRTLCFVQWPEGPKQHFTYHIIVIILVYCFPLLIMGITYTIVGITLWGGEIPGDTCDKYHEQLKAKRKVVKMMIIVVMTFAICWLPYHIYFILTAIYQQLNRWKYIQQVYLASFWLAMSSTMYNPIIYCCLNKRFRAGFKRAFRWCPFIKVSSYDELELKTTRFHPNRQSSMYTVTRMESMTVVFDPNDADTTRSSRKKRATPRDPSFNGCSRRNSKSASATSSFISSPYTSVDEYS

Structure (SMILES)	Effect in clinical trials on cognitive behaviour of schizophrenics (schizophrenics)	Effect in clinical trials, in particular on positive symptoms of psychosis (versus placebo, delusions, hallucinations and paranoia)
CC[C@H](NC(=O)c1c(O)c(-c2ccccc2)nc2ccccc12)c1ccccc1 [talnetant]	ameliorate the cognitive behaviour of schizophrenics	–
CC(=O)N(C)C1(c2ccccc2)CCN(CCC[C@]2(c3ccc(Cl)c(Cl)c3)CCCN(C(=O)c3ccccc3)C2)CC1 [Osanetant]	–	superior to placebo
